Reference: the CheMixHub ionic liquid set
± gives the uncertainty stated by the source.

Test: xn = mol fraction of the nth substance listed
[1] = 296.1 K, 101.3 kPa, x2 = 0.4, x1 = 0.2

SMILES: F[P-](F)(F)(F)(F)F.[Li+] + CC[n+]1ccn(C)c1.O=S(=O)([N-]S(=O)(=O)C(F)(F)F)C(F)(F)F
- electrical conductivity (288.15 K, 101 kPa, x2 = 0.729): 0.124 ± 0.013 S/m
- electrical conductivity (288.15 K, 101 kPa, x2 = 0.8022): 0.208 ± 0.021 S/m
- electrical conductivity (288.15 K, 101 kPa, x2 = 0.8765): 0.431 ± 0.043 S/m
- electrical conductivity (288.15 K, 101 kPa, x2 = 0.9623): 0.52 ± 0.052 S/m
- electrical conductivity (298.15 K, 101 kPa, x2 = 0.7088): 0.195 ± 0.02 S/m
- electrical conductivity (298.15 K, 101 kPa, x2 = 0.729): 0.222 ± 0.022 S/m
- electrical conductivity (298.15 K, 101 kPa, x2 = 0.8022): 0.355 ± 0.036 S/m
- electrical conductivity (298.15 K, 101 kPa, x2 = 0.8765): 0.651 ± 0.065 S/m
- electrical conductivity (298.15 K, 101 kPa, x2 = 0.9623): 0.775 ± 0.078 S/m
- electrical conductivity (333.15 K, 101 kPa, x2 = 0.7088): 0.816 ± 0.082 S/m
- electrical conductivity (333.15 K, 101 kPa, x2 = 0.729): 0.865 ± 0.087 S/m
- electrical conductivity (333.15 K, 101 kPa, x2 = 0.8022): 1.17 ± 0.12 S/m
- electrical conductivity (333.15 K, 101 kPa, x2 = 0.8765): 1.72 ± 0.17 S/m
- electrical conductivity (333.15 K, 101 kPa, x2 = 0.9623): 1.95 ± 0.2 S/m

SMILES: CCCC[n+]1ccn(C)c1.COP(=O)([O-])OC + CCCCCC(=O)O.CCCCCC(=O)[O-].CC[NH+](CC)CCO
- viscosity (298.15 K, 101 kPa, x2 = 0): 609 ± 21 mPa·s
- viscosity (303.15 K, 101 kPa, x2 = 0): 426 ± 13 mPa·s
- viscosity (318.15 K, 101 kPa, x2 = 0): 168.9 ± 3.3 mPa·s
- viscosity (333.15 K, 101 kPa, x2 = 0): 79.9 ± 1.1 mPa·s
- viscosity (358.15 K, 101 kPa, x2 = 0): 30.38 ± 0.38 mPa·s
- viscosity (363.15 K, 101 kPa, x2 = 0): 25.86 ± 0.33 mPa·s

SMILES: CCCCCCCC[N+](C)(CCCCCCCC)CCCCCCCC.O=S(=O)([N-]S(=O)(=O)C(F)(F)F)C(F)(F)F + O
- viscosity (313.15 K, 100 kPa, x1 = 0.8468): 239 ± 17 mPa·s
- viscosity (343.15 K, 100 kPa, x1 = 0.8468): 65 ± 4 mPa·s

SMILES: CCOP(=O)([O-])OCC.CC[n+]1ccn(C)c1 + CCO
- viscosity (293.15 K, 100 kPa, x1 = 0.7003): 178 ± 12 mPa·s
- viscosity (293.15 K, 100 kPa, x1 = 0.8985): 379 ± 27 mPa·s
- viscosity (293.15 K, 100 kPa, x1 = 1): 566 ± 43 mPa·s
- viscosity (298.15 K, 100 kPa, x1 = 0.4007): 29.8 ± 1.8 mPa·s
- viscosity (298.15 K, 100 kPa, x1 = 0.7003): 133.2 ± 8.5 mPa·s
- viscosity (303.15 K, 100 kPa, x1 = 0.4007): 24.8 ± 1.5 mPa·s
- viscosity (303.15 K, 100 kPa, x1 = 0.8): 139.2 ± 8.9 mPa·s
- viscosity (303.15 K, 100 kPa, x1 = 0.8985): 197 ± 13 mPa·s
- viscosity (308.15 K, 100 kPa, x1 = 0.7003): 79.6 ± 4.9 mPa·s
- viscosity (313.15 K, 100 kPa, x1 = 1): 155 ± 10 mPa·s
- viscosity (318.15 K, 100 kPa, x1 = 0.8985): 86.8 ± 5.4 mPa·s
- viscosity (323.15 K, 100 kPa, x1 = 0.7003): 41.1 ± 2.5 mPa·s
- viscosity (328.15 K, 100 kPa, x1 = 0.1002): 2.16 ± 0.13 mPa·s
- viscosity (328.15 K, 100 kPa, x1 = 0.1992): 4.29 ± 0.26 mPa·s
- viscosity (328.15 K, 100 kPa, x1 = 0.5993): 24.4 ± 1.5 mPa·s
- viscosity (333.15 K, 100 kPa, x1 = 0.4007): 10.87 ± 0.66 mPa·s
- viscosity (338.15 K, 100 kPa, x1 = 0.7003): 23.7 ± 1.4 mPa·s

SMILES: O=C[C@H](O)[C@@H](O)[C@H](O)[C@H](O)CO + Cn1cc[n+](CCC[n+]2ccn(C)c2)c1.[Br-].[Br-] + O
- viscosity (293.15 K, 101 kPa, x2 = 0, x1 = 0.001799): 1.043 mPa·s
- viscosity (298.15 K, 101 kPa, x2 = 0, x1 = 0.001799): 0.927 mPa·s
- viscosity (303.15 K, 101 kPa, x2 = 0, x1 = 0.001799): 0.83 mPa·s
- viscosity (308.15 K, 101 kPa, x2 = 0, x1 = 0.001799): 0.754 mPa·s
- viscosity (313.15 K, 101 kPa, x2 = 0, x1 = 0.001799): 0.683 mPa·s

SMILES: CC(C)O + CCCCCC[N+](CC)(CC)CC.O=S(=O)([N-]S(=O)(=O)C(F)(F)F)C(F)(F)F
- viscosity (298.15 K, 100 kPa, x1 = 1): 2.05 ± 0.21 mPa·s
- viscosity (303.15 K, 100 kPa, x1 = 1): 1.73 ± 0.17 mPa·s
- viscosity (308.15 K, 100 kPa, x1 = 1): 1.49 ± 0.15 mPa·s

SMILES: O=C1CCCO1 + CCC[N+]1(C)CCCC1.O=S(=O)([N-]S(=O)(=O)C(F)(F)F)C(F)(F)F
- viscosity (288.15 K, 101 kPa, x2 = 0): 2.146 ± 0.087 mPa·s
- viscosity (318.15 K, 101 kPa, x2 = 0): 1.398 ± 0.057 mPa·s
- viscosity (348.15 K, 101 kPa, x2 = 0): 0.99 ± 0.04 mPa·s

SMILES: [Cl-].[Cl-].[Co+2] + CCCCCCCC[N+](C)(CCCCCCCC)CCCCCCCC.[Cl-] + CCCCCCCC(=O)O
- viscosity [1]: 428 ± 36 mPa·s

SMILES: CCCC[n+]1ccn(C)c1.COP(=O)([O-])OC + CC(=O)[O-].CCCC[NH2+]CCO
- viscosity (278.15 K, 101 kPa, x2 = 0): 3503 ± 200 mPa·s
- viscosity (283.15 K, 101 kPa, x2 = 0): 2142 ± 110 mPa·s
- viscosity (288.15 K, 101 kPa, x2 = 0): 1361 ± 62 mPa·s
- viscosity (293.15 K, 101 kPa, x2 = 0): 895 ± 36 mPa·s
- viscosity (298.15 K, 101 kPa, x2 = 0): 609 ± 21 mPa·s
- viscosity (303.15 K, 101 kPa, x2 = 0): 426 ± 13 mPa·s
- viscosity (308.15 K, 101 kPa, x2 = 0): 305.8 ± 8.1 mPa·s
- viscosity (313.15 K, 101 kPa, x2 = 0): 224.9 ± 5.1 mPa·s
- viscosity (318.15 K, 101 kPa, x2 = 0): 168.9 ± 3.3 mPa·s
- viscosity (323.15 K, 101 kPa, x2 = 0): 129.4 ± 2.2 mPa·s
- viscosity (328.15 K, 101 kPa, x2 = 0): 100.9 ± 1.5 mPa·s
- viscosity (333.15 K, 101 kPa, x2 = 0): 79.9 ± 1.1 mPa·s
- viscosity (338.15 K, 101 kPa, x2 = 0): 64.25 ± 0.82 mPa·s
- viscosity (343.15 K, 101 kPa, x2 = 0): 52.35 ± 0.65 mPa·s
- viscosity (348.15 K, 101 kPa, x2 = 0): 43.18 ± 0.55 mPa·s
- viscosity (353.15 K, 101 kPa, x2 = 0): 36.02 ± 0.46 mPa·s
- viscosity (358.15 K, 101 kPa, x2 = 0): 30.38 ± 0.38 mPa·s
- viscosity (363.15 K, 101 kPa, x2 = 0): 25.86 ± 0.33 mPa·s
- viscosity (368.15 K, 101 kPa, x2 = 0): 22.22 ± 0.28 mPa·s
- viscosity (373.15 K, 101 kPa, x2 = 0): 19.25 ± 0.24 mPa·s

SMILES: [Cl-].[Cl-].[Co+2] + CCCCCCCCCCCCCC[P+](CCCCCC)(CCCCCC)CCCCCC.[Cl-] + CCCCCCCC(=O)O
- viscosity [1]: 8500 ± 2600 mPa·s

SMILES: CCCC[n+]1ccn(C)c1.[Cl-] + CC#N
- electrical conductivity (298.15 K, 101 kPa, x2 = 0.8012): 1.53 ± 0.03 S/m
- viscosity (298.15 K, 101 kPa, x2 = 0.8012): 3.52 ± 0.65 mPa·s
